Experimental data taken from patent publication US20050107437A1, “Novel herbicides” (priority 2001, published 2005).

Columns and labels:
Type in all cases: in vivo
Amaranthus (Amar) [1] = experiment: Pre-emergence herbicidal action (Example B1); parameters: key: 1=total damage; 9=no action; Ratings of from 1 to 4 (especially from 1 to 3) indicate good to very good herbicidal action; conditions: 1000 g of active ingredient/ha, 4 weeks, scale of nine ratings
Procedure: (§1) Monocotyledonous and dicotyledonous test plants are sown in standard soil in pots. Immediately after sowing, the test compounds, in the form of an aqueous suspension (prepared from a wettable powder (Example F3, b) according to WO 97/34485) or in the form of an emulsion (prepared from an emulsifiable concentrate (Example F1, c) according to WO 97/34485), are applied by spraying in an optimum concentration (500 litres of water/ha). The test plants are then grown in a greenhouse under optimum conditions. After a test duration of 4 weeks, the test is evaluated in accordance with a scale of nine ratings (1=total damage, 9=no action). Ratings of from 1 to 4 (especially from 1 to 3) indicate good to very good herbicidal action. Test plants: Setaria (Seta), Panicum (Pani), Echinochloa (Ds) (Echino), Amaranthus (Amar), Chenopodium (Cheno), Stellaria (Stella), Veronica, Euphorbia (Eupho), Brachiaria (Brachi).

Brachiaria (Brachi) = experiment: Pre-emergence herbicidal action (Example B1); parameters: key: 1=total damage; 9=no action; Ratings of from 1 to 4 (especially from 1 to 3) indicate good to very good herbicidal action; conditions: 1000 g of active ingredient/ha, 4 weeks, scale of nine ratings
Procedure: as §1

[2] = test system: Echinochloa (Ds) (Echino); experiment: Pre-emergence herbicidal action (Example B1); parameters: key: 1=total damage; 9=no action; Ratings of from 1 to 4 (especially from 1 to 3) indicate good to very good herbicidal action; conditions: 1000 g of active ingredient/ha, 4 weeks, scale of nine ratings
Procedure: as §1

Euphorbia (Eupho) [3] = experiment: Pre-emergence herbicidal action (Example B1); parameters: key: 1=total damage; 9=no action; Ratings of from 1 to 4 (especially from 1 to 3) indicate good to very good herbicidal action; conditions: 1000 g of active ingredient/ha, 4 weeks, scale of nine ratings
Procedure: as §1

Panicum (Pani) [4] = experiment: Pre-emergence herbicidal action (Example B1); parameters: key: 1=total damage; 9=no action; Ratings of from 1 to 4 (especially from 1 to 3) indicate good to very good herbicidal action; conditions: 1000 g of active ingredient/ha, 4 weeks, scale of nine ratings
Procedure: as §1

Setaria (Seta) [5] = experiment: Pre-emergence herbicidal action (Example B1); parameters: key: 1=total damage; 9=no action; Ratings of from 1 to 4 (especially from 1 to 3) indicate good to very good herbicidal action; conditions: 1000 g of active ingredient/ha, 4 weeks, scale of nine ratings
Procedure: as §1

Chenopodium (Cheno) [6] = experiment: Post-emergence herbicidal action (Example B2); conditions: 1000 g of active ingredient/ha, evaluated after 2 to 3 weeks, scale 1-9
Procedure: as §1, with “pots. When the test plants are at the 2- to 3-leaf stage,” for “pots. Immediately after sowing,”, “grown on” for “grown”, “of 2 to 3” for “of 4”, “Euphorbia (Eupho).” for “Euphorbia (Eupho), Brachiaria (Brachi).”

[7] = test system: Echinochloa (Ds) (Echino); experiment: Post-emergence herbicidal action (Example B2); conditions: 1000 g of active ingredient/ha, evaluated after 2 to 3 weeks, scale 1-9
Procedure: as §1, with “pots. When the test plants are at the 2- to 3-leaf stage,” for “pots. Immediately after sowing,”, “grown on” for “grown”, “of 2 to 3” for “of 4”, “Euphorbia (Eupho).” for “Euphorbia (Eupho), Brachiaria (Brachi).”

Panicum (Pani) [8] = experiment: Post-emergence herbicidal action (Example B2); conditions: 1000 g of active ingredient/ha, evaluated after 2 to 3 weeks, scale 1-9
Procedure: as §1, with “pots. When the test plants are at the 2- to 3-leaf stage,” for “pots. Immediately after sowing,”, “grown on” for “grown”, “of 2 to 3” for “of 4”, “Euphorbia (Eupho).” for “Euphorbia (Eupho), Brachiaria (Brachi).”

Setaria (Seta) [9] = experiment: Post-emergence herbicidal action (Example B2); conditions: 1000 g of active ingredient/ha, evaluated after 2 to 3 weeks, scale 1-9
Procedure: as §1, with “pots. When the test plants are at the 2- to 3-leaf stage,” for “pots. Immediately after sowing,”, “grown on” for “grown”, “of 2 to 3” for “of 4”, “Euphorbia (Eupho).” for “Euphorbia (Eupho), Brachiaria (Brachi).”

Amaranthus (Amar) [10] = experiment: Post-emergence herbicidal action (Example B2); parameters: key: 1=total damage; 9=no action; Ratings of from 1 to 4 (especially from 1 to 3) indicate good to very good herbicidal action; conditions: 1000 g of active ingredient/ha, evaluated after 2 to 3 weeks, scale 1-9
Procedure: as §1, with “pots. When the test plants are at the 2- to 3-leaf stage,” for “pots. Immediately after sowing,”, “grown on” for “grown”, “of 2 to 3” for “of 4”, “Euphorbia (Eupho).” for “Euphorbia (Eupho), Brachiaria (Brachi).”

Euphorbia (Eupho) [11] = experiment: Post-emergence herbicidal action (Example B2); parameters: key: 1=total damage; 9=no action; Ratings of from 1 to 4 (especially from 1 to 3) indicate good to very good herbicidal action; conditions: 1000 g of active ingredient/ha, evaluated after 2 to 3 weeks, scale 1-9
Procedure: as §1, with “pots. When the test plants are at the 2- to 3-leaf stage,” for “pots. Immediately after sowing,”, “grown on” for “grown”, “of 2 to 3” for “of 4”, “Euphorbia (Eupho).” for “Euphorbia (Eupho), Brachiaria (Brachi).”

Chenopodium (Cheno) [12] = experiment: Pre-emergence herbicidal action (Example B1); parameters: key: 1=total damage; 9=no action; Ratings of from 1 to 4 (especially from 1 to 3) indicate good to very good herbicidal action; conditions: 1000 g of active ingredient/ha, 4 weeks, scale of nine ratings
Procedure: as §1

Stellaria (Stella) [13] = experiment: Pre-emergence herbicidal action (Example B1); parameters: key: 1=total damage; 9=no action; Ratings of from 1 to 4 (especially from 1 to 3) indicate good to very good herbicidal action; conditions: 1000 g of active ingredient/ha, 4 weeks, scale of nine ratings
Procedure: as §1

Veronica [14] = experiment: Pre-emergence herbicidal action (Example B1); conditions: 1000 g of active ingredient/ha, 4 weeks, scale of nine ratings
Procedure: as §1

Stellaria (Stella) [15] = experiment: Post-emergence herbicidal action (Example B2); conditions: 1000 g of active ingredient/ha, evaluated after 2 to 3 weeks, scale 1-9
Procedure: as §1, with “pots. When the test plants are at the 2- to 3-leaf stage,” for “pots. Immediately after sowing,”, “grown on” for “grown”, “of 2 to 3” for “of 4”, “Euphorbia (Eupho).” for “Euphorbia (Eupho), Brachiaria (Brachi).”

Veronica [16] = experiment: Post-emergence herbicidal action (Example B2); conditions: 1000 g of active ingredient/ha, evaluated after 2 to 3 weeks, scale 1-9
Procedure: as §1, with “pots. When the test plants are at the 2- to 3-leaf stage,” for “pots. Immediately after sowing,”, “grown on” for “grown”, “of 2 to 3” for “of 4”, “Euphorbia (Eupho).” for “Euphorbia (Eupho), Brachiaria (Brachi).”

In the case of `COc1cc(Cl)cnc1OCC#Cc1cccc(OCC#N)n1` [1.063, 2-[3-(6-cyanomethoxy-pyrid-2-yl)-prop-2-ynyloxy]-5-chloro-3-methoxypyridine], the “Herbicidal rating Amar” value (Amaranthus (Amar) [1]) is reported as 1, the “Herbicidal rating Brachi” value (Brachiaria (Brachi)) is reported as 1 and the “Herbicidal rating Echino (Ds)” value [2] is reported as 4. The “Herbicidal rating Eupho” value (Euphorbia (Eupho) [3]) was 1, the “Herbicidal rating Pani” value (Panicum (Pani) [4]) was 1 and the “Herbicidal rating Seta” value (Setaria (Seta) [5]) was 2. The “Post-emergence herbicidal action rating, Cheno” value (Chenopodium (Cheno) [6]) was 2, the “Post-emergence herbicidal action rating, Echino (Ds)” value [7] was 3 and the “Post-emergence herbicidal action rating, Pani” value (Panicum (Pani) [8]) was 3. The “Post-emergence herbicidal action rating, Seta” value (Setaria (Seta) [9]) was 5, the “Post-emergence herbicidal action rating, Amar” value (Amaranthus (Amar) [10]) was 2 and the “Post-emergence herbicidal action rating, Eupho” value (Euphorbia (Eupho) [11]) was 1.
For `COc1cc(F)cnc1OCC#Cc1ccc(Cl)nc1` [2.005, 2-[3-(6-chloro-pyrid-3-yl)-prop-2-ynyloxy]-5-fluoro-3-methoxy-pyridine], the “Herbicidal rating Brachi” value (Brachiaria (Brachi)) was 1, the “Herbicidal rating Cheno” value (Chenopodium (Cheno) [12]) was 1 and the “Herbicidal rating Echino (Ds)” value [2] was 1. For the same molecule, the “Herbicidal rating Eupho” value (Euphorbia (Eupho) [3]) was 5, the “Herbicidal rating Pani” value (Panicum (Pani) [4]) was 4 and the “Herbicidal rating Seta” value (Setaria (Seta) [5]) was 4. For the same molecule, the “Herbicidal rating Stella” value (Stellaria (Stella) [13]) was 1, the “Herbicidal rating Veronica” value (Veronica [14]) was 4 and the “Post-emergence herbicidal action rating, Cheno” value (Chenopodium (Cheno) [6]) was 3. For the same molecule, the “Post-emergence herbicidal action rating, Pani” value (Panicum (Pani) [8]) was 4, the “Post-emergence herbicidal action rating, Seta” value (Setaria (Seta) [9]) was 3 and the “Post-emergence herbicidal action rating, Stella” value (Stellaria (Stella) [15]) was 2. For the same molecule, the “Post-emergence herbicidal action rating, Veronica” value (Veronica [16]) was 2, the “Post-emergence herbicidal action rating, Amar” value (Amaranthus (Amar) [10]) was 1 and the “Post-emergence herbicidal action rating, Eupho” value (Euphorbia (Eupho) [11]) was 1.
`COc1cc(Cl)cnc1OCC#Cc1ccc(Cl)nc1` [2.006, 5-chloro-2-[3-(6-chloro-pyrid-3-yl)-prop-2-ynyloxy]-3-methoxy-pyridine] was tested, and the “Herbicidal rating Amar” value (Amaranthus (Amar) [1]) was 1, the “Herbicidal rating Brachi” value (Brachiaria (Brachi)) was 1 and the “Herbicidal rating Echino (Ds)” value [2] was 1. For the same molecule, the “Herbicidal rating Eupho” value (Euphorbia (Eupho) [3]) was 1, the “Herbicidal rating Pani” value (Panicum (Pani) [4]) was 1 and the “Herbicidal rating Seta” value (Setaria (Seta) [5]) was 1. For the same molecule, the “Herbicidal rating Stella” value (Stellaria (Stella) [13]) was 1, the “Herbicidal rating Veronica” value (Veronica [14]) was 5 and the “Post-emergence herbicidal action rating, Cheno” value (Chenopodium (Cheno) [6]) was 2. The “Post-emergence herbicidal action rating, Pani” value (Panicum (Pani) [8]) was 2, the “Post-emergence herbicidal action rating, Seta” value (Setaria (Seta) [9]) was 2 and the “Post-emergence herbicidal action rating, Stella” value (Stellaria (Stella) [15]) was 2. For the same molecule, the “Post-emergence herbicidal action rating, Veronica” value (Veronica [16]) was 2, the “Post-emergence herbicidal action rating, Amar” value (Amaranthus (Amar) [10]) was 2 and the “Post-emergence herbicidal action rating, Eupho” value (Euphorbia (Eupho) [11]) was 1.
